Drawing on US4623661A, “Lipoxygenase inhibiting compounds” (Abbott Laboratories, priority 1985, dated 1986), this text covers inhibition and IC50 for six molecules.

SMILES strings stand for the structures.

Holding throughout (type): biochemical
In one test the target is T1, 12-lipoxygenase (Homo sapiens, UniProt P18054).
T1 construct: 12-lipoxygenase obtained from human platelets; from tissue; host or cells: human platelets
T1 sequence (P18054 1-663): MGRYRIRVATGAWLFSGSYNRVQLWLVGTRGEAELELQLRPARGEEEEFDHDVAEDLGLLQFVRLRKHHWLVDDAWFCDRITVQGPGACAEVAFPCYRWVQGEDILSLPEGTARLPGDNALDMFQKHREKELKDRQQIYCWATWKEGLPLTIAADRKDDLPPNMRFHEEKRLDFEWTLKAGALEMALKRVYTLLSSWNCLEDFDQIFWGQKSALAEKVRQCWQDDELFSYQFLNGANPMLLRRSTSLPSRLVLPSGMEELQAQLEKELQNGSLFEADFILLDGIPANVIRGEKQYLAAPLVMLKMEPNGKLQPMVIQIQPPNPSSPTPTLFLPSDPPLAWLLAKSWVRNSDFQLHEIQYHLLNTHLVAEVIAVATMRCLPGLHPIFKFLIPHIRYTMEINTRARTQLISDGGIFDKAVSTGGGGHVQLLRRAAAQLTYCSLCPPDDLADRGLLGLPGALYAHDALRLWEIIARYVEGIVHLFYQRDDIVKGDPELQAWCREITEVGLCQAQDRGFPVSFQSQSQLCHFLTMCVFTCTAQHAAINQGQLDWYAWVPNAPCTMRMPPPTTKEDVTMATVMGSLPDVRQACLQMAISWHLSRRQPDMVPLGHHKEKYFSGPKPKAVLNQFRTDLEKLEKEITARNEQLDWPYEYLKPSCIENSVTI
Description: 12-lipoxygenase inhibition (12-lipoxygenase obtained from human platelets). The conditions noted are these: for inhibition at 10 µM: read-out: % Inhibition at Indicated Concentration, 12-lipoxygenase, 10 uM; for inhibition at 100 µM: read-out: % Inhibition at Indicated Concentration, 12-lipoxygenase, 100 uM. As to the method: (§1) The compounds of this invention are potent inhibitors of 5-, 12- and 15-lipoxygenase. An assay to determine 5-lipoxygenase activity was performed in incubations containing various concentrations of the test compound and the 20,000 G supernatant from 7.5×10^6 homogenized RBL-1 cells. Reactions were initiated by the addition of radiolabeled arachidonic acid and terminated by acidification and ether extraction. Reaction products were separated from nonconverted substrate by thin layer chromatography and measured by liquid scintillatiton spectroscopy. Inhibition of 5-lipoxygenase activity was calculated as the ratio of the amounts of product formed in the presence and absence of inhibitor.
(§2) The inhibitory activities of the compounds of this invention against 12- and 15-lipoxygenase can be determined in the foregoing assay in which 12-lipoxygenase obtained from human platelets, or 15-lipoxygenase obtained from soybean, is substituted for the 5-lipoxygenase-containing cell supernatant fraction.

The next test has as its target T2, 15-lipoxygenase (Glycine max, UniProt P08170).
T2 construct: 15-lipoxygenase obtained from soybean; from tissue; host or cells: soybean
T2 sequence (P08170 1-839): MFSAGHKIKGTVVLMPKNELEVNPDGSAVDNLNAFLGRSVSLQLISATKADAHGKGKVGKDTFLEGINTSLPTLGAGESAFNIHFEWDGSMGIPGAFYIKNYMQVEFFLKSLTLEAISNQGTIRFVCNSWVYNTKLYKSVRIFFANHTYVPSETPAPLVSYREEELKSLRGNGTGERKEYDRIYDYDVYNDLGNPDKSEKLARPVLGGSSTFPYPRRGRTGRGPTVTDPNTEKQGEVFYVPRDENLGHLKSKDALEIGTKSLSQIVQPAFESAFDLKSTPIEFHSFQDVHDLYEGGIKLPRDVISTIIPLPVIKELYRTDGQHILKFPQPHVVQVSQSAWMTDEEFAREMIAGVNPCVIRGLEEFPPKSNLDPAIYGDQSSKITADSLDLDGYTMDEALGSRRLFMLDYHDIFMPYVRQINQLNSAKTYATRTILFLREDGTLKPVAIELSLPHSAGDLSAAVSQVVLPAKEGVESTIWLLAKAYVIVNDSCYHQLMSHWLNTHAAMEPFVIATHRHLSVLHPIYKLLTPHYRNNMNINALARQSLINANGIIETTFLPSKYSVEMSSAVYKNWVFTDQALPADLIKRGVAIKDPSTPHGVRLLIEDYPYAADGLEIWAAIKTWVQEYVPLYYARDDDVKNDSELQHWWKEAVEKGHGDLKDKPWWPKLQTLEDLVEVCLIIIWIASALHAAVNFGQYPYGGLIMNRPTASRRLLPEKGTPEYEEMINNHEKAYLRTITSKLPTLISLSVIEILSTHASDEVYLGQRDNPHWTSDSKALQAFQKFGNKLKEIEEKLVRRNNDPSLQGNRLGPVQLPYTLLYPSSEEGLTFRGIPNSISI
Description: 15-lipoxygenase inhibition (15-lipoxygenase obtained from soybean). Conditions: for inhibition at 10 µM: read-out: % Inhibition at Indicated Concentration, 15-lipoxygenase, 10 uM; for inhibition at 100 µM: read-out: % Inhibition at Indicated Concentration, 15-lipoxygenase, 100 uM. The protocol: as §1, §2

A further test addresses T3, 5-lipoxygenase (Rattus norvegicus, UniProt P12527).
T3 construct: 20,000 G supernatant from 7.5×10^6 homogenized RBL-1 cells; endogenous in cells; host or cells: RBL-1 cells (20,000 G supernatant of homogenate)
T3 sequence (P12527 1-673): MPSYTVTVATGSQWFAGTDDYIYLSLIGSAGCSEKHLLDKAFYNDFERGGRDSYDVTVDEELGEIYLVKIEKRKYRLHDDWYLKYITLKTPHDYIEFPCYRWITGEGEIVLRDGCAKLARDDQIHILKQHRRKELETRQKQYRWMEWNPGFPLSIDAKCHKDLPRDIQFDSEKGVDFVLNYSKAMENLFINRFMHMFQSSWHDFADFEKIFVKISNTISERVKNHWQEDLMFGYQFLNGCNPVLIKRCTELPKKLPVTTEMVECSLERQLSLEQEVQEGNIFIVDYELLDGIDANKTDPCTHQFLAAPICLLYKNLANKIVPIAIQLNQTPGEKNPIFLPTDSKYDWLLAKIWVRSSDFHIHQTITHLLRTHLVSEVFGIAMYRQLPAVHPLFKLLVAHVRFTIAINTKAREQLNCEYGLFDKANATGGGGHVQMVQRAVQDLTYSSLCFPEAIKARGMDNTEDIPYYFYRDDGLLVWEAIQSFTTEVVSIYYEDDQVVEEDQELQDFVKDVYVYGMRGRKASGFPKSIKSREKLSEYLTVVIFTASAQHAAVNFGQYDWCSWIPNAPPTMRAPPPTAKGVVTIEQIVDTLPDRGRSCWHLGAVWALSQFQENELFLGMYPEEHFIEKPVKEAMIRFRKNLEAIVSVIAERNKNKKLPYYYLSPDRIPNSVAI
Description: 5-Lipoxygenase IC50 determination (20,000 G supernatant from homogenized RBL-1 cells, radiolabeled arachidonic acid). Conditions: RBL-1 cell 20,000 G supernatant; linear regression of % inhibition vs log concentration. The protocol:
Reactions were initiated by the addition of radiolabeled arachidonic acid and terminated by acidification and ether extraction. Reaction products were separated from nonconverted substrate by thin layer chromatography and measured by liquid scintillatiton spectroscopy. Inhibition of 5-lipoxygenase activity was calculated as the ratio of the amounts of product formed in the presence and absence of inhibitor.

On to `CN(O)C(=O)C=Cc1ccc(-c2ccccc2)cc1` [Example 1, N-Methyl 3-(4-biphenyl)acrylohydroxamic acid], for which, on 12-lipoxygenase, the inhibition at 10 µM amounted to 63% and the inhibition at 100 µM came out at 68%. At 15-lipoxygenase, the inhibition at 10 µM turned out to be 52% and the inhibition at 100 µM turned out to be 74%.

Take `CN(O)C(=O)C=Cc1cccc(-c2ccccc2)c1` [Example 2, N-methyl-3-(3-biphenyl)-acrylohydroxamic acid]: at 12-lipoxygenase, the inhibition at 10 µM worked out at 99% and the inhibition at 100 µM came out at 96%. Moreover, on 15-lipoxygenase, the inhibition at 10 µM was 43% and the inhibition at 100 µM stood at 85%.

For the molecule `O=C(NO)c1ccc(-c2ccccc2)cc1` [Example 7, 4-biphenyl hydroxamic acid], at 12-lipoxygenase, the inhibition at 10 µM is 86% and the inhibition at 100 µM turned out to be 97%. On 5-lipoxygenase, this molecule registered an IC50 of 4.1 µM. At 15-lipoxygenase, the inhibition at 10 µM amounted to 0% and the inhibition at 100 µM was determined as 30%.

For the molecule `O=C(NO)c1cccc(-c2ccccc2)c1` [Example 8, 3-biphenyl hydroxamic acid], the IC50 at 5-lipoxygenase is 6 µM. Also, at 15-lipoxygenase, the inhibition at 10 µM is 33% and the inhibition at 100 µM was 33%.

With `O=C(NO)c1ccc2c(ccc3ccccc32)c1` [Example 12, 2-Phenanthrylhydroxamic acid], the IC50 on 5-lipoxygenase was 1.9 µM.

`O=C(NO)c1ccc2ccc3ccccc3c2c1` [Example 13, 3-Phenanthryl hydroxamic acid]: the IC50 against 5-lipoxygenase was determined as 1.2 µM. Besides, on 15-lipoxygenase, the inhibition at 10 µM was 25% and the inhibition at 100 µM was found to be 39%.
